# According to patent US9145393B2, “Arylpyridinone ITK inhibitors for treating inflammation and cancer” (Confluence Life Sciences, Inc., priority 2014, dated 2015):
# Structures can show the parent of a compound that is named as a salt.
# Target: T1, ITK (Homo sapiens, UniProt Q08881)
# T1 sequence (Q08881 1-620): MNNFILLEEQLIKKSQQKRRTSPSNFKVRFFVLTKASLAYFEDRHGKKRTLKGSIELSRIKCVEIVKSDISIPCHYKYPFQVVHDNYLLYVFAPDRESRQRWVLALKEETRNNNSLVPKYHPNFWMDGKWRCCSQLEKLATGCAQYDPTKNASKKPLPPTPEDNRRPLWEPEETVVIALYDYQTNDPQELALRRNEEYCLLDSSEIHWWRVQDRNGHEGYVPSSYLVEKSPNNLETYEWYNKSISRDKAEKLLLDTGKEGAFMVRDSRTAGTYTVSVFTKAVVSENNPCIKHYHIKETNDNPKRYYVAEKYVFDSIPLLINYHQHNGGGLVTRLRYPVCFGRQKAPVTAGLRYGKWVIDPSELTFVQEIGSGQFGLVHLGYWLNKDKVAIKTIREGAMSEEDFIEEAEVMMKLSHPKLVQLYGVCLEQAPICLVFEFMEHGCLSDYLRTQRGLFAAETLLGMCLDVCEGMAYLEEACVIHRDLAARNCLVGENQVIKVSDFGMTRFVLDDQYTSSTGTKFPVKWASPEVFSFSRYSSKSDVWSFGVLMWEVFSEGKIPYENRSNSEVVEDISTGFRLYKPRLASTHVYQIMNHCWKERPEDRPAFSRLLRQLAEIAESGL
# Assay: ITK inhibitor binding potency (LanthaScreen TR-FRET competitive binding assay)
# Details: pre-incubation condition not stated; read-out: ITK Inhibition IC50
# Source text: The ability of candidate compounds to interact with ITK is quantitated by a competitive binding assay using the LanthaScreen technology developed by Life Technologies. This assay is based on the binding of a proprietary, Alexa Fluor® 647-labeled, ATP-competitive kinase inhibitor (kinase tracer-236) to the ITK expression construct in the presence of a Europium-conjugated antibody, resulting in a FRET (fluorescence resonance energy transfer) signal. Displacement of the kinase tracer by compound results in a lower emission ratio upon excitation of the Europium chelate. Candidate compounds are designed as potential irreversible inhibitors of ITK, capable of ligating to an active site cysteine residue resulting in time dependent covalent binding. The time dependent nature of irreversible inhibition is investigated by performing the binding assay with and without a pre-incubation of compound and ITK. […] The inhibitory potency of candidate compounds is measured in 20 mM HEPES pH 7.5, 10 mM MgCl2, 0.01% BSA, 0.0005% Tween-20, and 2% DMSO in the presence of 10 nM ITK, 2 nM Eu-anti-GST antibody, and 50 nM kinase tracer-236 using a 384-well plate format. Background signal is defined in the absence of ITK and uninhibited signal is defined in the presence of vehicle (2% DMSO) alone. Compounds were evaluated in an 11-point dose-response ranging from 20 uM to 0.34 nM. The binding assays are performed under two preincubation Conditions to evaluate time dependence of inhibition. For the pre-incubation assay, ITK and Eu-anti-GST antibody are pre-incubated with compound or vehicle for two hours prior to the addition of kinase tracer. The non-preincubated assay is run under Conditions where ITK and Eu-anti-GST antibody are added to a mixture of compound and kinase tracer. IC50 values of compounds are determined using a 4 parameter logistical fit of emission ratio as a function of the concentration of compound.
row,Compound,IC50 [nM]
1,"CNc1cc(-c2c[nH]c(=O)c(NC3CN(C(=O)/C=C/CN(C)C)C3)c2)ccn1 [Example 19, (E)-5-((1-(4-(Dimethylamino)but-2-enoyl)azetidin-3-yl)amino)-2′-(methylamino)-[3,4′-bipyridin]-6(1H)-one]",≤ 1000
2,"C=CC(=O)N1CC(Nc2cc(-c3ccnc(NC)c3)c[nH]c2=O)C1 [Example 9, 5-((1-acryloylazetidin-3-yl)amino)-2′-(methylamino)-[3,4′-bipyridin]-6(1H)-one]",≤ 1000
3,"CC/C=C/C(=O)N1CC(Nc2cc(-c3ccnc(NC)c3)c[nH]c2=O)C1 [Example 18, (E)-2′-(Methylamino)-5-((1-(pent-2-enoyl)azetidin-3-yl)amino)-[3,4′-bipyridin]-6(1H)-one]",≤ 1000
4,"CNc1cc(-c2c[nH]c(=O)c(NC3CN(C(=O)/C=C/c4ccccc4)C3)c2)ccn1 [Example 14, (E)-5-((1-Cinnamoylazetidin-3-yl)amino)-2′-(methylamino)-[3,4′-bipyridin]-6(1H)-one]",> 1000
5,"C=CC(=O)N1CC[C@@H](Nc2cc(-c3ccncc3)c[nH]c2=O)C1 [Example 3, (R)-5-((1-Acryloylpyrrolidin-3-yl)amino)-[3,4′-bipyridin]-6(1H)-one]",> 1000
6,"CNc1cc(-c2c[nH]c(=O)c(NC3CN(C(=O)/C=C/CCOc4ccccc4)C3)c2)ccn1 [Example 20, (E)-2′-(Methylamino)-5-((1-(5-phenoxypent-2-enoyl)azetidin-3-yl)amino)-[3,4′-bipyridin]-6(1H)-one]",≤ 1000
7,"C=CC(=O)N1CC(Nc2cc(-c3ccnc(C(=O)Nc4ccc(C(C)C)c(C)c4)c3)c[nH]c2=O)C1 [Example 16, 5-((1-Acryloylazetidin-3-yl)amino)-N-(4-isopropyl-3-methylphenyl)-6-oxo-1,6-dihydro-[3,4′-bipyridine]-2′-carboxamide hydrochloride]",≤ 1000
8,"C=CC(=O)N1CC(Nc2cc(-c3ccnc(C)c3)c[nH]c2=O)C1 [Example 7, 5-((1-acryloylazetidin-3-yl)amino)-2′-methyl-[3,4′-bipyridin]-6(1H)-one]",≤ 1000
9,"O=C(CCl)N1CCC[C@@H](Nc2cc(-c3ccncc3)c[nH]c2=O)C1 [Example 1, (R)-5-((1-(2-Chloroacetyl)piperidin-3-yl)amino)-[3,4′-bipyridin]-6(1H)-one]",≤ 1000
10,"C=CC(=O)N1CC(Nc2cc(-c3ccnc(NC)n3)c[nH]c2=O)C1 [Example 10, 3-((1-acryloylazetidin-3-yl)amino)-5-(2-(methylamino)pyrimidin-4-yl)pyridin-2(1H)-one]",≤ 1000
11,"CNc1cc(-c2c[nH]c(=O)c(NC3CN(C(=O)/C=C/Cc4ccccc4)C3)c2)ccn1 [Example 15, (E)-2′-(Methylamino)-5-((1-(4-phenylbut-2-enoyl)azetidin-3-yl)amino)-[3,4′-bipyridin]-6(1H)-one]",> 1000
12,"C=CC(=O)N1CC(Nc2cc(-c3ccncc3)c[nH]c2=O)C1 [Example 5, 5-((1-Acryloylazetidin-3-yl)amino)-[3,4′-bipyridin]-6(1H)-one]",≤ 1000
13,"Cc1cc(NC(=O)c2cc(-c3c[nH]c(=O)c(NC4CN(C(=O)CCl)C4)c3)ccn2)ccc1C(C)C [Example 17, 5-((1-(2-Chloroacetyl)azetidin-3-yl)amino)-N-(4-isopropyl-3-methylphenyl)-6-oxo-1,6-dihydro-[3,4′-bipyridine]-2′-carboxamide formate]",> 1000
14,"C=CC(=O)N1CC(Nc2cc(-c3cncc(OC)n3)c[nH]c2=O)C1 [Example 8, 3-((1-acryloylazetidin-3-yl)amino)-5-(6-methoxypyrazin-2-yl) pyridin-2(1H)-one]",≤ 1000
15,"C=CC(=O)N1CC(Nc2cc(-c3cncc(NC)n3)c[nH]c2=O)C1 [Example 11, 3-((1-acryloylazetidin-3-yl)amino)-5-(6-(methylamino)pyrazin-2-yl) pyridin-2(1H)-one]",≤ 1000
16,"CNC/C=C/C(=O)N1CC(Nc2cc(-c3ccncc3)c[nH]c2=O)C1 [Example 13, (E)-5-((1-(4-(methylamino)but-2-enoyl)azetidin-3-yl)amino)-[3,4′-bipyridin]-6(1H)-one]",≤ 1000
17,"O=C(CCl)N1CC(Nc2cc(-c3ccncc3)c[nH]c2=O)C1 [Example 4, 5-((1-(2-Chloroacetyl)azetidin-3-yl)amino)-[3,4′-bipyridin]-6(1H)-one]",≤ 1000
18,"C=CC(=O)N1CCC[C@@H](Nc2cc(-c3ccncc3)c[nH]c2=O)C1 [Example 2, (R)-5-((1-Acryloylpiperidin-3-yl)amino)-[3,4′-bipyridin]-6(1H)-one]",> 1000
19,"C/C=C/C(=O)N1CC(Nc2cc(-c3ccncc3)c[nH]c2=O)C1 [Example 6, (E)-5-((1-(But-2-enoyl)azetidin-3-yl)amino)-[3,4′-bipyridin]-6(1H)-one]",> 1000
20,"CNC(=O)/C=C/C(=O)N1CC(Nc2cc(-c3ccncc3)c[nH]c2=O)C1 [Example 12, (E)-N-methyl-4-oxo-4-(3-((6-oxo-1,6-dihydro-[3,4′-bipyridin]-5-yl)amino)azetidin-l-yl)but-2-enamide]",> 1000

# System: ITK mediated IL-2 release in Jurkat cells
# Assay: ITK IL-2 release assay in CD3/CD28-stimulated Jurkat cells
# Format: cell-based
# Details: Homo sapiens, CD3/CD28 Dynabeads stimulation, overnight, read-out: IL-2 Production Inhibition IC50
# Experimental: This assay was based on the ability of a compound to inhibit ITK mediated IL-2 release. Jurkat cells were placed in wells of a 96-well plate at 500,000 per well in 120 μL medium (same as above). Compounds were added as 15 μL per well of 10× working stock solutions in medium with 1% DMSO (or medium with 1% DMSO for Controls) and placed in a 37° C. incubator for 2 hours. Stimulation used CD3/CD28 Dynabeads to activate the T cell receptor and mimic antigen-presenting cells. Beads were added at a ratio of 1 bead per cell, in 15 μL medium (or medium alone for unstimulated Control). After overnight incubation, the plates were centrifuged at 290×g for 5 min, then 100 μL per well of supernatant medium removed for IL-2 cytokine assay. To determine cell viability, to the remaining well Contents 50 μL of CellTiter-Glo reagent was added and luminescence determined. The IL-2 cytokine assay utilized an electochemiluminescence-based ELISA.
row,Compound,IC50 [nM]
1,"C=CC(=O)N1CC(Nc2cc(-c3ccnc(NC)c3)c[nH]c2=O)C1 [Example 9, 5-((1-acryloylazetidin-3-yl)amino)-2′-(methylamino)-[3,4′-bipyridin]-6(1H)-one]",≤ 1000
2,"C=CC(=O)N1CC(Nc2cc(-c3ccnc(NC)n3)c[nH]c2=O)C1 [Example 10, 3-((1-acryloylazetidin-3-yl)amino)-5-(2-(methylamino)pyrimidin-4-yl)pyridin-2(1H)-one]",≤ 1000
3,"C=CC(=O)N1CC(Nc2cc(-c3cncc(NC)n3)c[nH]c2=O)C1 [Example 11, 3-((1-acryloylazetidin-3-yl)amino)-5-(6-(methylamino)pyrazin-2-yl) pyridin-2(1H)-one]",≤ 1000
